Where two headings read alike, the source gives them in different places.
Experiments:
[1] = system: MAGE levels in PC3 and DU145 cells; assay: Lipid (MAGE) measurements in cancer cells; format: cell-based, human; conditions: for MAGE levels: 10 μM, 4 h in situ
Method: (§1) Inhibitors were dissolved in DMSO and diluted into media or buffer prior to cell or proteome treatment, respectively. For in vitro treatment, final DMSO concentration was 4%. For in situ treatments of cells for ABPP, lipid measurements, migration, cell-survival, and invasion assays, 2×10^6 cells were seeded in 6 cm dishes (˜100% confluency) 24 h prior to inhibitor pre-treatment (in DMSO at 0.1% final concentration) in serum-free media (3 mL) for the designated time before harvesting cells for ABPP or lipid measurements or before the initiation of migration, cell-survival, and invasion assays.
Lipid measurements were performed in cancer cells as previously described (Chiang et al., 2006). Briefly, frozen cell pellets from cells harvested after 4 h serum starvation were extracted in 2:1:1 chloroform:methanol:Tris buffer pH 8.0 by dounce homogenization with 10 nmol of internal standard C12 MAGE. The organic layer was removed, dried under N2, and resuspended in 120 μL of chloroform, and 30 μL was injected into an Agilent 1100-MSD LC-MS. MAGE levels were quantified by measuring the area under the peak and were normalized to the C12 MAGE internal standard.

PC3 and DU145 cells [2] = assay: Cell migration assay (Transwell); format: cell-based, human; conditions: for PC3 and DU145 migration: 10 μM, 4 h in situ
Method: as §1
(§2) Cell migration, cell survival, and invasion studies were performed as previously described (Nomura et al., 2010). Briefly, migration assays were performed in Transwell chambers (Corning) with 8 μm pore-sized membranes coated with 10 μg/mL collagen at 37° C. for LNCaP (24 h), PC3 (4 h) and DU145 cells (24 h), respectively. Cell survival assays were performed using the Cell Proliferation Reagent WST-1 (Roche) Invasion assays were conducted using the BD Matrigel Invasion Chambers per the manufacturer's protocol. Inhibitors were preincubated for the stated duration before seeding cells into migration, cell-survival, or invasion chambers. Prior to seeding the cells in these chambers, cells were serum-starved for 4 h. Inhibitors were also present during the migration, cell-survival, and invasion assays.

PC3 and DU145 cells [3] = assay: Serum-free cell survival assay (WST-1); format: cell-based, human; conditions: for PC3 and DU145 serum-free cell survival: 10 μM, 4 h in situ
Method: as §1, §2

KIAA1363 = target: T1, KIAA1363 (Mus musculus, UniProt Q8BLF1); assay: Gel-based competitive ABPP of KIAA1363 in mouse brain membrane proteome (FP-rhodamine); format: biochemical
T1 construct: ABPP analysis of KIAA1363 activity in mouse brain membrane proteome; from tissue; host or cells: mouse brain (membrane fraction)
T1 sequence (Q8BLF1 1-408): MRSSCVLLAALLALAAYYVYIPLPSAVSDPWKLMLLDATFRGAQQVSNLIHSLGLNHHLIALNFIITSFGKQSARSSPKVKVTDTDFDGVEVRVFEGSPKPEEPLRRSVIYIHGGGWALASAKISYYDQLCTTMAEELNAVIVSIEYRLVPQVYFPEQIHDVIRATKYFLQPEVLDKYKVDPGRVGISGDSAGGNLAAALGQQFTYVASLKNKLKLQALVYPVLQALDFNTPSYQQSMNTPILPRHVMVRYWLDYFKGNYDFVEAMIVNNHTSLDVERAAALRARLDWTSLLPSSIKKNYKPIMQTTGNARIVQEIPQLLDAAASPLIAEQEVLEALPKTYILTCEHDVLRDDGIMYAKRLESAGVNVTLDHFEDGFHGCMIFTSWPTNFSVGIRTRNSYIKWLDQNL
Method: In various embodiments, the invention provides a method of inhibiting a serine hydrolase, comprising contacting the hydrolase with a compound of formula (I), e.g., a compound selected from set of compounds shown in Table 1, below. […] IC50 values were derived from ABPP analysis of KIAA1363 activity in mouse brain membrane proteome and are averages of three replicates. Inhibitors were added to the proteome for 30 min before addition of FP-rhodamine (1 μM, 30 min).
Tissues were Dounce-homogenized in PBS, pH 7.4, followed by a low-speed spin (1,400 g, 5 min) to remove debris. The supernatant was then subjected to centrifugation (100,000×g, 45 min) to provide the cytosolic fraction in the supernatant and the unsoluble fraction as a pellet. The pellet was washed and resuspended in PBS buffer by sonication. Total protein concentration in each fraction was determined using a protein assay kit (Bio-Rad). Samples were stored at −80° C. until use.
For ABPP experiments, cell lysate and tissue proteomes were treated with 1 μM FP-rhodamine for 30 min at room temperature (50 μL total reaction volume) as described previously (Nomura et al., 2010). Reactions were quenched with one volume of standard 4×SDS/PAGE loading buffer (reducing), separated by SDS/PAGE (10% acrylamide), and visualized in-gel with a Hitachi FMBio IIe flatbed fluorescence scanner (MiraiBio). Inhibitors were preincubated prior (30 min or 4 h at 37° C. in vitro or in situ, respectively) to the addition of FP-rhodamine.

AChE = target: T2, AChE (Mus musculus, UniProt P21836); assay: AChE activity assay with acetylthiocholine in mouse brain proteome; format: biochemical; conditions: for Cross-reactivity with AChE: acetylthiocholine hydrolysis in mouse brain membrane proteome; for IC50: mouse brain proteome, substrate acetylthiocholine, n=3, read-out: IC50 for AChE (FIG. 2D)
T2 construct: 20 μg of cell lysate or mouse brain membrane proteome; from tissue; host or cells: mouse brain (membrane proteome)
T2 sequence (P21836 32-614): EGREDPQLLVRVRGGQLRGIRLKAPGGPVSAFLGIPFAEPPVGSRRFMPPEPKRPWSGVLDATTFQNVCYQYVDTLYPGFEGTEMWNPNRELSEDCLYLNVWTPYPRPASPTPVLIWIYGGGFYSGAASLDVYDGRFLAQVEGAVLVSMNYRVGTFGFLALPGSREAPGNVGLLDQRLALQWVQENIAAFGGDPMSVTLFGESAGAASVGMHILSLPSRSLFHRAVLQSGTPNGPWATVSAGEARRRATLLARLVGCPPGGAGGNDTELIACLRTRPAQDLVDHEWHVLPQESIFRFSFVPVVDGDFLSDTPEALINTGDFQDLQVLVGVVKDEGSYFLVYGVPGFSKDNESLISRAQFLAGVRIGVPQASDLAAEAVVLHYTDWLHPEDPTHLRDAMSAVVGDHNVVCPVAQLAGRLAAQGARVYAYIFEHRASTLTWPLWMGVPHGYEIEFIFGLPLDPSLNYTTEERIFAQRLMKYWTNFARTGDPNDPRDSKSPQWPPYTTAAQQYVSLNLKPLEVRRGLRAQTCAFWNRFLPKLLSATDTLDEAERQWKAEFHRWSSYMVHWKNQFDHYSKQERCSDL
Method: AChE activity was measured using a method similar to that described previously (Ellman et al., 1961). Briefly, 50 μL of 10 mM acetylthiocholine was added to 200 μL of PBS containing 2 mM DTNB and 20 μg of cell lysate or mouse brain membrane proteome. Absorbance was measured at 412 nm over 5 min, and the rate of product accumulation was calculated from the slope of the absorbance over time. For assays involving preincubation with inhibitors, the reactions were prepared without acetylthiocholine and JW480 was incubated at the indicated concentration for 30 min at 37° C. Acetylthiocholine was then added and the assay was carried out exactly as described above.

[4] = competitive ABPP in mouse brain proteome, n=3, read-out: IC50 for KIAA1363 (FIG. 2D)
[5] = mouse brain KIAA1363, read-out: IC50 for KIAA1363
[6] = mouse brain membrane proteome, inhibitor 30 min before FP-rhodamine (1 μM, 30 min), averages of three replicates, read-out: IC50 (KIAA1363)

Row | SMILES | MAGE levels [1] | PC3 and DU145 migration (PC3 and DU145 cells [2]) | PC3 and DU145 serum-free cell survival (PC3 and DU145 cells [3]) | IC50 (KIAA1363; [4]) | IC50 (KIAA1363; [5]) | IC50 (KIAA1363; [6]) | IC50 (KIAA1363; screened against KIAA1363, Table 1, read-out: IC50 values of less than 1 micromolar) | Cross-reactivity with AChE (AChE) | IC50 (AChE) | MAGE lipids ([1]; 1 μM, 48 hr) | Migration of PC3 cells (PC3 and DU145 cells [2]; 1 μM, 48 h in situ) | Serum-free cell survival of PC3 cells (PC3 and DU145 cells [3]; 1 μM, 48 h in situ) | IC50 (KIAA1363; screened against KIAA1363, Table 1, read-out: IC50 values of around 10 nanomolar (most potent))
1 | COc1ccc(CNC(=O)Oc2cccc3c2OC(C)(C)C3)cc1 [JW148, 2,2-dimethyl-2,3-dihydrobenzofuran-7-yl 4-methoxybenzylcarbamate] | lower MAGE levels | impair | impair | 200 nM | ~200 nM | 117 nM | < 1000 nM | cross-reactivity | 1000 nM |  |  |  | 
2 | CC(C)c1ccccc1OC(=O)NCCc1ccc2ccccc2c1 [JW480, 2-isopropylphenyl (2-(naphthalen-2-yl)ethyl)carbamate] | lower MAGE levels | impair | impair | 20 nM | 20 nM | 13.9 nM |  | negligible cross-reactivity | > 100000 nM | significant reductions | reduced | reduced | ~10 nM

Reference: US9249128B2 (priority 2010, dated 2016)
